Reference: patent publication US20140227326A1, “METHOD OF DELIVERING NASAL SPRAY” (priority 2004, published 2014)

Assay: Pharmacokinetic testing of olopatadine 0.6% nasal spray in clinical trials (plasma level by HPLC)
Assay type: in vivo
Details: human subjects, formulation containing 0.6% olopatadine, two sprays/nostril twice per day, intranasal

CN(C)CC/C=C1/c2ccccc2COc2ccc(CC(=O)O)cc21 [olopatadine, Z-11-(3-dimethylaminopropylidene)-6,11-dihydrodibenz[b,e]oxepine-2-acetic acid]
time post-dose at which peak plasma concentration was measured: 0.5 to 2 h | peak plasma concentration of olopatadine (C.), observed range (plasma, high performance liquid chromatography): 14.4 to 35.3 ng/mL | peak plasma concentration of olopatadine (C.), mean (plasma, mean +/- spread): 23.3 ± 6.1 ng/mL
